# Measured values reported in patent publication US8334316B2, “Substituted organosulfur compounds and methods of using thereof” (ACEA Biosciences, Inc., priority 2004, dated 2012).
# Legend:
# [1] = test system: A431 cells (human epidermoid cancer cells); test: RT-CES system cell proliferation, A431; format: cell-based; conditions: FIG. 6B
# Procedure: A431 cells (human epidermoid cancer cells) were seeded into wells of microtiter plate devices (electronic plates, i.e., the plates comprise microelectrode sensor arrays in the wells of the plate) with an initial seeding density of 10,000 cells per well and were pre-incubated in incubator under standard cell culture conditions for about 22.3 hrs. Various concentrations of DBTS and 5-fluorouracil solutions were added into wells following the incubation period. The cell status was monitored prior to and after the compound addition using RT-CES system.
# HT1080 cells = test: Inhibition of cancer cell proliferation, IC50 of ACEA100129 (RT-CES or MTT, not specified), HT1080; format: cell-based; conditions: Homo sapiens, HT-1080
# Procedure: (§1) The anticancer potency of DBTS and its derivatives were tested in 8 different types of human cancer cell lines using the RT-CES system and MTT assay. The 8 cancer cell lines were HT1080 (the human fibrosarcoma cell line), H460 (human non small cell lung cancer cell line), OVCAR4 (the human ovarian cancer cell line), MCF7 (human breast cancer cell line) MDA-MB231 (M231, the human breast cancer cell line) A2780 (the human […] cancer cell line) Jurkat (the human T cell leukemia cell line). The test DBTS derivatives include ACEA100107, ACEA100108, ACEA100109, ACEA100111, ACEA100115, ACEA100116, ACEA100117, ACEA100118, ACEA100119, and ACEA100120.
# (§2) For the assay performed on the RT-CES system, the cells were seeded into the 16× or 96× microtiter plate devices (electronic plates, i.e., the plates comprise microelectrode sensor arrays in the wells of the plate) at the seeding density ranging from 5000 cells/well to 15,000 cells/well. The cells were incubated at 5% CO2 and 37° C. for overnight till the cell indices reached the growth phase where the cell index was between 0.8 and 1.2. […] The time-dependent IC50 values for each derivative were calculated based the dose responses of cell index value at different time points after compound treatment. […]
# HELA cells = test: Inhibition of cancer cell proliferation, IC50 of ACEA100129 (RT-CES or MTT, not specified), HELA; format: cell-based; conditions: Homo sapiens
# Procedure: as §1, §2
# MCF7 cells = test: Inhibition of cancer cell proliferation, IC50 of ACEA100129 (RT-CES or MTT, not specified), MCF7; format: cell-based; conditions: Homo sapiens
# Procedure: as §1, §2
# mouse Lewis lung cancer [2] = test: In vivo antitumor efficacy, mouse Lewis lung cancer model, Example 2 (DBTS, CTX, Taxol reference); conditions: 30 mg/kg/d ip x7 qd
# mouse sarcoma S180 = test: In vivo antitumor efficacy, mouse sarcoma S180 model (subcutaneously transplanted), Example 1; conditions: 30 mg/kg/d ip x7 qd
# mouse Lewis lung cancer [3] = test: In vivo antitumor efficacy, mouse Lewis lung cancer model (subcutaneously transplanted), Example 1
# Procedure: Test controls. For the negative control, two groups were set up: the solvent only control group and normal saline control group. […] In the normal saline group, each mouse was administered with 0.5 ml of normal saline, once per day and for 7 or 10 consecutive days. For the positive control group, the anticancer compound, cyclophosphamide (CTX) was administered intraperitoneally at 30 mg/kg, once per day and for 7 or 10 consecutive days.
# In the mouse Lewis lung cancer model, 200 mg of DBTS was dissolved in 5 mL castor oil (in polyoxyethlated version). […] The intravenous injection speed was about 0.5 mL/0.5 min.
# The dosages and administration of test compounds are within the knowledge of those commonly skilled in pharmacology. For example, the test compounds may be administered by intravenous injection with a test compound solution twice per day and for 7 consecutive days. Alternatively, the test compounds may be administered by intravenous injection with a test compound solution once per day and for 10 consecutive days.
# 0.2 mL of the tumor cell suspension (between 4 and 8 million tumor cells) was then transplanted back into an experimental mouse by subcutaneous injection. […] Each removed solid tumor was weighted, and the tumor inhibition rate in the DBTS-treated groups and in the CTX-treated group was calculated according to the formula: Tumor inhibition rate %=(average weight of tumor in the negative control group−average weight of tumor in the compound treated group)/average weight of tumor in the negative control group×100 (2)
# For the mouse Lewis lung cancer model, the Lewis lung cancer cells were subcutaneously transplanted at approximately 5 million cells per mouse. After 24 hours of the transplantation, each mouse in the test group was administered intravenously with dibenzyl trisulfide at 50, 25, or 12.5 mg/kg per day and for 10 consecutive days. For the positive control group, each mouse was administered with CTX at […] intraperitoneally per day and for 10 consecutive days. For the negative control group, each mouse was administered intravenously either with normal saline, or with the solvent for dibenzyl trisulfide at the same concentration as that in the test group per day and for consecutive 10 days. For each group, 10 mice were used.
# [4] = test system: P388 lymphocytic leukemia; test: Murine P388 lymphocytic leukemia model (intraperitoneal transplantation), life span; format: in vivo, mouse; conditions: 2 mg/kg/d iv x7 qd
# Procedure: Both male and female mice were used.
# Preparation and Administration of Test Compounds.
# To prepare cancer cells for the P388 murine lymphocytic leukemia model, ascites of a P388 leukemia-bearing mouse were removed under sterile condition. The ascites were diluted in normal saline (1:6 for ascites to normal saline) to prepare cell suspension. 0.2 mL of the cell suspension was then injected intraperitoneally. […] The life span of carrier mice was determined within 30 days. The life span ratio comparing to the negative control group of the carrier mice in each compound treatment group was calculated according to the formula: Life span ratio %=average life span for the compound treatment group/average life span for the negative control group×100% (4)
# [5] = test system: A549 human lung cancer cells; test: Apoptosis: Annexin V-Cy3 / 6-CFDA staining of A549 cells; format: cell-based; conditions: 10 nM, 24 hrs
# Procedure: The cells were incubated with the drugs for 24 hours and then washed 2× with PBS and 3× with binding buffer (10 mM HEPES, pH 7.5, 140 mM NaCl, 2.5 mM CaCl2). […] The cells were gently washed 3× in 1× binding buffer, mounted, viewed under immunofluorescent microscope and imaged using an attached CCD camera. Note that live cells show staining only with 6-CFDA (green), while necrotic cells will stain only with Annexin V-Cy3 (red). Cells starting the apoptotic process will stain both with AnnexinV-Cy3 and 6-CFDA.
# [6] = test system: microtubules in COS cells; test: Microtubule network in cultured COS cells (anti-tubulin immunofluorescence, confocal microscopy); format: cell-based
# Procedure: Cell Culture and Immunocytochemistry. COS cells were grown in DMEM media supplemented with non-essential amino acids, 10% FBS, antibiotic-antimycotic (Gibco BRL) at 37° C. and 5.5% CO2. […] Cells were then rinsed once with warm PBS, fixed with cold methanol, rinsed again in PBS and blocked overnight at 4° C. in PBT (PBS, 1% BSA, 0.5% Triton X-100). All subsequent stains and washes were done in PBT at room temperature unless stated otherwise. Cells were stained with the anti-tubulin mouse antibody DM-1 at 1:1000 for 1 hour, washed four times for 15 minutes each and then treated with Cy-3 conjugated goat anti mouse antibody at 1:100 for 1 hour in the dark. Next, samples were washed four times for 15 minutes each in PBT in the dark followed by a final 15 minute wash in PBS in the dark. Samples were then viewed by laser scanning confocal microscopy.
smiles,measurement,setting,value
O=c1[nH]cc(F)c(=O)[nH]1 [5-fluorouracil],Concentration showing inhibitory ability against proliferation,[1],≥ 12.5 µM
"Cc1ccc(CSSSCc2ccc(C)cc2)cc1 [ACEA100129, Di(p-methylbenzyl)trisulfide]",IC50,HT1080 cells,820 nM
same,IC50,HELA cells,420 nM
same,IC50,MCF7 cells,2300 nM
"O=P1(N(CCCl)CCCl)NCCCO1 (centres unmarked) [CTX, cyclophosphamide, reference compound]",Animal weight (g) beginning,mouse Lewis lung cancer [2],21.1 g
same,Animal weight (g) end,mouse Lewis lung cancer [2],22.3 g
same,Tumor weight,mouse Lewis lung cancer [2],0.258 ± 0.09 g
same,tumor inhibition rate %,mouse Lewis lung cancer [2]; vs normal saline control,90.75%
same,Animal weight (g) beginning,mouse sarcoma S180,19.6 g
same,Animal weight (g) end,mouse sarcoma S180,20.3 g
same,Inhibition rate (%),mouse sarcoma S180; vs 10% solvent control,88.83%
same,Inhibition rate (%),mouse sarcoma S180; vs normal saline control,91.76%
same,Animal weight (g) beginning,mouse Lewis lung cancer [3]; 30 mg/kg/d ip,19.1 g
same,Animal weight (g) end,mouse Lewis lung cancer [3]; 30 mg/kg/d ip,20.2 g
same,Inhibition rate (%),"mouse Lewis lung cancer [3]; 30 mg/kg/d ip x7 qd, vs 5% solvent control",85.83%
same,Inhibition rate (%),"mouse Lewis lung cancer [3]; 30 mg/kg/d ip x10 qd, vs normal saline control",87.62%
"CO[C@@]12[C@H](COC(N)=O)C3=C(C(=O)C(C)=C(N)C3=O)N1C[C@@H]1N[C@@H]12 [MMC, mitomycin C, reference compound]",Beginning animal weight,[4],20.6 g
same,animal No. beginning/end (survivors),[4],10/1
same,Average life span X ± SD,[4]; observed within 30 days,18.1 ± 0.15
same,Life span ratio %,[4]; vs solvent control,186.59%
"CC[C@]1(O)C[C@@H]2CN(CCc3c([nH]c4ccccc34)[C@@](C(=O)OC)(c3cc4c(cc3OC)N(C)[C@H]3[C@@](O)(C(=O)OC)[C@H](OC(C)=O)[C@]5(CC)C=CCN6CC[C@]43[C@@H]65)C2)C1 [vinblastine, reference compound]",Annexin V staining (apoptosis),[5],strong staining of Annexin V
same,Microtubule network appearance,[6]; 4 hours exposure,the microtubule network begins to fall apart and the microtubules become much shorter
same,Microtubule network appearance,"[6]; 24 hours exposure, increasing dosage",major cell abnormalities are widespread in the microtubule network
